# According to patent US10501481B2, “Heterocyclic compounds and their use in preventing or treating bacterial infections” (priority 2015, dated 2019):
# Experiments:
# [1] = system: K. pneumoniae UFR24 (TEM-1, SHV-2, SHV-11, OXA-1, OXA-48, OXA-47); assay: MIC broth microdilution, alone and synergy with ceftazidime; details: strain UFR24; compound fixed at 4 μg/mL
# OXA-1 = target: T1, OXA-1 (Escherichia coli, UniProt P13661); assay: β-lactamase inhibitory activity, nitrocefin hydrolysis; assay type: biochemical
# T1 construct: made in house; host or cells: E. coli
# T1 sequence (P13661 26-276): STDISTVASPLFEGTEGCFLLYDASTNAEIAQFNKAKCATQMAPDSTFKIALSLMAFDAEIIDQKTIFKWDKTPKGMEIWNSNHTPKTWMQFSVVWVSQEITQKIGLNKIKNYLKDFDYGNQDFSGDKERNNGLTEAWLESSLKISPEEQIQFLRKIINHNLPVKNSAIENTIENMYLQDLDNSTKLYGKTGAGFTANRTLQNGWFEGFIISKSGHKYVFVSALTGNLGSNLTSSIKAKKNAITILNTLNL
# Method: (§1) Enzyme activity was monitored by spectrophotometric measurement of nitrocefin (NCF-TOKU-E, N005) hydrolysis at 485 nm, at room temperature and in assay buffer A: 100 mM Phosphate pH7, 2% glycerol and 0.1 mg/mL Bovine serum albumin (Sigma, B4287). […] To a transparent polystyrene plate (Corning, 3628) were added in each well 5 μL DMSO or inhibitor dilutions in DMSO and 80 μL enzyme in buffer A. Plates were immediately read at 485 nm in a microplate spectrophotometer (BioTek, PowerWave HT) to enable background subtraction. After 30 min of pre-incubation at room temperature, 15 μL of NCF (200 μM final) were finally added in each well. Final enzyme concentrations were 0.1 nM (TEM-1), 0.075 nM (SHV-1), 0.4 nM (CTX-M-15), 1 nM (KPC-2), 0.2 nM (P99 AmpC), 0.2 nM (CMY-37), 0.4 nM (AmpC P. aeruginosa), 0.2 nM (OXA-1), 1.2 nM (OXA-11), 0.4 nM (OXA-15) and 0.3 nM (OXA-48). After 20 min incubation at room temperature, plates were once again read at 485 nm. Enzyme activity was obtained by subtracting the final signal by the background, and was converted to enzyme inhibition using non inhibited wells. IC50 curves were fitted to a classical Langmuir equilibrium model with Hill slope using XLFIT (IDBS).
# [2] = system: K. oxytoca UFR21 (TEM-1, CTX-M-15, OXA-48); assay: MIC broth microdilution, alone and synergy with ceftazidime
# [3] = system: E. coli 131119 (TEM-1, OXA-48); assay: as above; details: strain 131119; compound fixed at 4 μg/mL
# [4] = system: K. pneumoniae 160143 (TEM-1, SHV-1, CTX-M-15, KPC-2, OXA-1); assay: as above
# CTX-M-15 = target: T2, CTX-M-15 (Escherichia coli, UniProt Q9EXV5); assay: β-lactamase inhibitory activity, nitrocefin hydrolysis; assay type: biochemical
# T2 construct: made in house; host or cells: E. coli
# T2 sequence (Q9EXV5 entry or part of it): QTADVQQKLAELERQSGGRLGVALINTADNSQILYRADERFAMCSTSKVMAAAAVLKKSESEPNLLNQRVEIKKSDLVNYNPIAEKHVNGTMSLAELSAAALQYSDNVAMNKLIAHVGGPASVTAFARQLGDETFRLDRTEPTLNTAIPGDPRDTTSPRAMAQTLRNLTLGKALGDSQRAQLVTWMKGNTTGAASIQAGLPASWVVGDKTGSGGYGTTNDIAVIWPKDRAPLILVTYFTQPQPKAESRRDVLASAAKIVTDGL
# Method: as §1
# OXA-48 = target: T3, OXA-48 (Klebsiella pneumoniae, UniProt Q6XEC0); assay: as above; assay type: biochemical
# T3 construct: made in house; host or cells: E. coli
# T3 sequence (Q6XEC0 23-265 limits assumed): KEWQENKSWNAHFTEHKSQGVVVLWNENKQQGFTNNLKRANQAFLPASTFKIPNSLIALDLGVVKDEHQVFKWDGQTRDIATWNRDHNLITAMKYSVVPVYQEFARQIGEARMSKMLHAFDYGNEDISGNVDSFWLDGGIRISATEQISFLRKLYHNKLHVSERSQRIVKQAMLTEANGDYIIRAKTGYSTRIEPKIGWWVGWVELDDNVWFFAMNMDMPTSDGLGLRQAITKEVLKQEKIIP
# Method: as §1
# [5] = system: E. cloacae UFR38 (CTX-M-15, NDM-1); assay: MIC broth microdilution, alone and synergy with ceftazidime
# [6] = system: K. pneumoniae 200047 (TEM-1, SHV-32, CTX-M-15, OXA-1); assay: as above
# [7] = system: P. aeruginosa CIP107051 (TEM-24); assay: as above
# P99 AmpC = target: T4, P99 AmpC (Enterobacter cloacae, UniProt P05364); assay: β-lactamase inhibitory activity, nitrocefin hydrolysis; assay type: biochemical; details: class (C); 30 min pre-incubation; nitrocefin 200 μM
# T4 construct: made in house; host or cells: E. coli
# T4 sequence (P05364 21-381): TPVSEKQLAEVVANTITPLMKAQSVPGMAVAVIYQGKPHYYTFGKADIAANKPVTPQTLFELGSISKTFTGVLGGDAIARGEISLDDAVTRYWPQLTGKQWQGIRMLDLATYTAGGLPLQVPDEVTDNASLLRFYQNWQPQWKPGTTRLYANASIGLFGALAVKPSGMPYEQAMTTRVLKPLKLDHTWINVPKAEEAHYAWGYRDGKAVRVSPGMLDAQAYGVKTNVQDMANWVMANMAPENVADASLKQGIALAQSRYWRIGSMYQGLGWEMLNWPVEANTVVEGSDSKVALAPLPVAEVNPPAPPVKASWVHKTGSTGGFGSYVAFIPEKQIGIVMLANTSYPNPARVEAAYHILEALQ
# Method: as §1
# E. coli RGN238 (OXA-1) = assay: MIC broth microdilution, alone and synergy with ceftazidime
# [8] = system: K. pneumoniae BAA-1898 (TEM-1, SHV-11, SHV-12, KPC-2); assay: microbe, parasite or virus in culture; assay type: cell-based
# [9] = system: E. coli UFR61O (TEM-1, KPC-2); assay: MIC broth microdilution, alone and synergy with ceftazidime; details: strain UFR61O; compound fixed at 4 μg/mL
# [10] = system: K. pneumoniae UFR68 (TEM-1, SHV-11, CTX-M-15, KPC-3); assay: as above
# [11] = system: K. pneumoniae 6299 (TEM-1, SHV-11, OXA-163); assay: as above
# SHV-1 = target: T5, SHV-1 (Klebsiella pneumoniae, UniProt P0AD64); assay: β-lactamase inhibitory activity, nitrocefin hydrolysis; assay type: biochemical
# T5 construct: made in house; host or cells: E. coli
# T5 sequence (P0AD64 22-286): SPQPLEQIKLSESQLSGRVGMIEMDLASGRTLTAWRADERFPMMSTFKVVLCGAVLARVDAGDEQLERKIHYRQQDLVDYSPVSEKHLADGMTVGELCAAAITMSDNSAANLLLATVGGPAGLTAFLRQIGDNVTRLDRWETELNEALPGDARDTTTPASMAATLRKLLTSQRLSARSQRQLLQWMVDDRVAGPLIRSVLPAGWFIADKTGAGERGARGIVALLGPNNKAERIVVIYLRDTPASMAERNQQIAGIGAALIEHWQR
# Method: as §1
# OXA-11 = target: T6, OXA-11 (Pseudomonas aeruginosa, UniProt Q06778); assay: as above; assay type: biochemical
# T6 construct: made in house; host or cells: E. coli
# T6 sequence (Q06778 21-266): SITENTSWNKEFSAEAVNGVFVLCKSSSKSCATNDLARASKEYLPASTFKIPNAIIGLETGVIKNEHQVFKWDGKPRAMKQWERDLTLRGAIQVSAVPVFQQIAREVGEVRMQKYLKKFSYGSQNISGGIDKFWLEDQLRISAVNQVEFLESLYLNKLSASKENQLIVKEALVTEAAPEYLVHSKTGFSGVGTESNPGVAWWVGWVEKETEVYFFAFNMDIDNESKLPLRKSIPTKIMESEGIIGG
# Method: as §1
# [12] = system: E. coli UFR18 (CTX-M-15, OXA-204); assay: MIC broth microdilution, alone and synergy with ceftazidime
# [13] = system: E. coli UFR74 (SHV-1, DHA-1); assay: as above
# AmpC P. aeruginosa = AmpC P. aeruginosa (Pseudomonas aeruginosa, UniProt P24735); assay: biochemical
# Sequence of AmpC P. aeruginosa (P24735 27-397): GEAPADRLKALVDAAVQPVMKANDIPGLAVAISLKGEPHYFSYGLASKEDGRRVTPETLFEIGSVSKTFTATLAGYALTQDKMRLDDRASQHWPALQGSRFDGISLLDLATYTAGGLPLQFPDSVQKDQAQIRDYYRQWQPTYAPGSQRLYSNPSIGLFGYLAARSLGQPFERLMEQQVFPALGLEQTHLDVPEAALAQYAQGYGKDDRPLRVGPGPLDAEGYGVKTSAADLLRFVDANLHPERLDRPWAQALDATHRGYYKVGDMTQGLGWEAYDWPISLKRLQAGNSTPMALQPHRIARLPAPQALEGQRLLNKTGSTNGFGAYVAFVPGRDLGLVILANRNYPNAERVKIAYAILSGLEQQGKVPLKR
# Method: Enzyme activity was monitored by spectrophotometric measurement of nitrocefin (NCF-TOKU-E, N005) hydrolysis at 485 nm, at room temperature and in assay buffer A: 100 mM Phosphate pH7, 2% glycerol and 0.1 mg/mL Bovine serum albumin (Sigma, B4287). Enzymes were cloned in E. coli expression vector, expressed and purified in house using classical procedures. To a transparent polystyrene plate (Corning, 3628) were added in each well 5 μL DMSO or inhibitor dilutions in DMSO and 80 μL enzyme in buffer A. Plates were immediately read at 485 nm in a microplate spectrophotometer (BioTek, PowerWave HT) to enable background subtraction. After 30 min of pre-incubation at room temperature, 15 μL of NCF (200 μM final) were finally added in each well. Final enzyme concentrations were 0.1 nM (TEM-1), 0.075 nM (SHV-1), 0.4 nM (CTX-M-15), 1 nM (KPC-2), 0.2 nM (P99 AmpC), 0.2 nM (CMY-37), 0.4 nM (AmpC P. aeruginosa), 0.2 nM (OXA-1), 1.2 nM (OXA-11), 0.4 nM (OXA-15) and 0.3 nM (OXA-48). After 20 min incubation at room temperature, plates were once again read at 485 nm. Enzyme activity was obtained by subtracting the final signal by the background, and was converted to enzyme inhibition using non inhibited wells. IC50 curves were fitted to a classical Langmuir equilibrium model with Hill slope using XLFIT (IDBS).
# KPC-2 = target: T7, KPC-2 (Klebsiella pneumoniae, UniProt Q9F663); assay: β-lactamase inhibitory activity, nitrocefin hydrolysis; assay type: biochemical
# T7 construct: made in house; host or cells: E. coli
# T7 sequence (Q9F663 25-293 limits assumed): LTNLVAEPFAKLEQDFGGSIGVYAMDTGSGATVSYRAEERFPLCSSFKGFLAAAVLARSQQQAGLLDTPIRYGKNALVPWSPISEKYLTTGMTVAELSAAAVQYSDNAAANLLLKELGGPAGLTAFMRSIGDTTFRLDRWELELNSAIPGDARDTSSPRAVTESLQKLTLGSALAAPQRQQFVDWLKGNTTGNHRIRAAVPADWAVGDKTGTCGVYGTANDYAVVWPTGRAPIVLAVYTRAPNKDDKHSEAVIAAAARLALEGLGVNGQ
# Method: as §1
# [14] = system: E. cloacae UFR70 (TEM-1, CTX-M-15, CMY-2, OXA-1, Porin loss); assay: MIC broth microdilution, alone and synergy with ceftazidime
# [15] = Klebsiella pneumoniae, read-out: MIC compounds of the invention alone
# [16] = Enterobacter cloacae, read-out: MIC compounds of the invention alone
# [17] = Escherichia coli, read-out: MIC compounds of the invention alone
smiles,measurement,setting,value
"O=C1N2Cc3c(sc(=O)n3CCO)C(C2)N1OS(=O)(=O)[O-].[Na+] (centres unmarked) [Example 5, Sodium [5-(2-hydroxyethyl)-4,9-dioxo-3-thia-5,8,10-triaza-tricyclo[6.2.1.0^2.6]undec-2(6)-en-10-yl) sulfate]",MIC of CAZ in combination with compound at 4 μg/mL,[1],<0.25 µg/mL
same,IC50,OXA-1,310 nM
same,MIC,"[2]; Klebsiella oxytoca, read-out: MIC compounds of the invention alone",4 µg/mL
same,MIC of CAZ in combination with compound at 4 μg/mL,"[2]; strain UFR21, compound fixed at 4 μg/mL",<0.25 µg/mL
same,MIC of CAZ in combination with compound at 4 μg/mL,[3],<0.25 µg/mL
same,MIC,[4]; [15],8 µg/mL
same,MIC of CAZ in combination with compound at 4 μg/mL,"[4]; strain 160143, compound fixed at 4 μg/mL",<0.25 µg/mL
same,IC50,CTX-M-15,0.68 nM
same,IC50,OXA-48,0.79 nM
same,MIC,[5]; [16],2 µg/mL
same,MIC of CAZ in combination with compound at 4 μg/mL,"[5]; strain UFR38, compound fixed at 4 μg/mL",<0.25 µg/mL
same,MIC,[6]; [15],2 µg/mL
same,MIC of CAZ in combination with compound at 4 μg/mL,"[6]; strain 200047, compound fixed at 4 μg/mL",<0.25 µg/mL
same,MIC,"[7]; Pseudomonas aeruginosa, CIP107051, read-out: MIC compounds of the invention alone",> 32 µg/mL
same,MIC of CAZ in combination with compound at 4 μg/mL,"[7]; strain CIP107051, compound fixed at 4 μg/mL",4 µg/mL
same,IC50,P99 AmpC,24 nM
same,MIC,E. coli RGN238 (OXA-1); [17],1 µg/mL
same,MIC of CAZ in combination with compound at 4 μg/mL,"E. coli RGN238 (OXA-1); strain RGN238, compound fixed at 4 μg/mL",<0.25 µg/mL
same,MIC,"[8]; Klebsiella pneumoniae, BAA1898, read-out: MIC compounds of the invention alone",8 µg/mL
same,MIC of CAZ in combination with compound at 4 μg/mL,"[8]; strain BAA-1898, compound fixed at 4 μg/mL",4 µg/mL
same,MIC of CAZ in combination with compound at 4 μg/mL,[9],<0.25 µg/mL
same,MIC,[10]; [15],8 µg/mL
same,MIC of CAZ in combination with compound at 4 μg/mL,"[10]; strain UFR68, compound fixed at 4 μg/mL",≤0.25 µg/mL
same,MIC,[11]; [15],8 µg/mL
same,MIC of CAZ in combination with compound at 4 μg/mL,"[11]; strain 6299, compound fixed at 4 μg/mL",≤0.125 µg/mL
same,IC50,SHV-1,6 nM
same,IC50,OXA-11,31 nM
same,MIC,[12]; [17],2 µg/mL
same,MIC of CAZ in combination with compound at 4 μg/mL,"[12]; strain UFR18, compound fixed at 4 μg/mL",<0.25 µg/mL
same,MIC,[13]; [17],4 µg/mL
same,MIC of CAZ in combination with compound at 4 μg/mL,"[13]; strain UFR74, compound fixed at 4 μg/mL",<0.25 µg/mL
same,IC50,AmpC P. aeruginosa,370 nM
same,IC50,KPC-2,1.7 nM
same,MIC,[14]; [16],1 µg/mL
same,MIC of CAZ in combination with compound at 4 μg/mL,"[14]; strain UFR70, compound fixed at 4 μg/mL",<0.25 µg/mL
